# From BindingDB's records for doi:10.1021/acsmedchemlett.5b00177 (Dart Neuroscience, 2015)
# Target: Methionine aminopeptidase 2 (Homo sapiens) (UniProt P50579)
# Test: Inhibition of human METAP2 using Met-Pro-Arg-pNa substrate by para-nitroanilide chromophore release detection assay
# Methionine aminopeptidase 2 (Homo sapiens), sequence (P50579 whole entry, looked up): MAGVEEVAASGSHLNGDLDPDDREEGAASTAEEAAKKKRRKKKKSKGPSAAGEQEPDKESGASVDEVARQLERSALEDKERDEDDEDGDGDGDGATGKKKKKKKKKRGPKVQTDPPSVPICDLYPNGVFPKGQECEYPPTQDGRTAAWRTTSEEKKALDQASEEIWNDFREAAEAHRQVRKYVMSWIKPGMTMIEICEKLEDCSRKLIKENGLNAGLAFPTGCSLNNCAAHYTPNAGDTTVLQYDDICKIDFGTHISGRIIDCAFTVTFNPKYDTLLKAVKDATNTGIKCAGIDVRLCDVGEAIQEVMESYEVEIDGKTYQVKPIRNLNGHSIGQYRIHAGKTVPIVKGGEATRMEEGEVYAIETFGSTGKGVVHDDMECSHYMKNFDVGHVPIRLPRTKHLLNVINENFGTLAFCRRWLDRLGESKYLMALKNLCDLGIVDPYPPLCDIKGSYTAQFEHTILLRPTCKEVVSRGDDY
row,IC50 [µM],Structure (SMILES)
1,5,CN1CCN(c2ccc(-c3cnc4c5[nH]ncc5c(=O)n(CC(F)(F)F)c4c3)cn2)CC1
2,24,CN1CCN(c2cncc(-c3cnc4c5[nH]ncc5c(=O)n(CC(F)(F)F)c4c3)c2)CC1
3,20,O=c1c2cn[nH]c2c2ncc(-c3ccccc3C(F)(F)F)cc2n1CC(F)(F)F
4,13,O=c1c2cn[nH]c2c2cnc(-c3ncccc3Cl)cc2n1CC(F)(F)F
